# The source made the active and inactive calls.
# How the values were obtained:
# [1] = target: T1, Heat shock factor protein 1 (Mus musculus, UniProt P38532); experiment: enhancement of HSF1-driven luciferase signal – cell-based, NIH3T3, luminescence, dose retest, confirmation (AID 435004); type: functional;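 further: stress induced by proteasome inhibitor MG132 added 30 min after compound; luciferase reporter driven by HSF1 response element in NIH3T3 cells; actives raise luminescence as potentiators of the MG132 stress response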
# T1 sequence (P38532 whole entry): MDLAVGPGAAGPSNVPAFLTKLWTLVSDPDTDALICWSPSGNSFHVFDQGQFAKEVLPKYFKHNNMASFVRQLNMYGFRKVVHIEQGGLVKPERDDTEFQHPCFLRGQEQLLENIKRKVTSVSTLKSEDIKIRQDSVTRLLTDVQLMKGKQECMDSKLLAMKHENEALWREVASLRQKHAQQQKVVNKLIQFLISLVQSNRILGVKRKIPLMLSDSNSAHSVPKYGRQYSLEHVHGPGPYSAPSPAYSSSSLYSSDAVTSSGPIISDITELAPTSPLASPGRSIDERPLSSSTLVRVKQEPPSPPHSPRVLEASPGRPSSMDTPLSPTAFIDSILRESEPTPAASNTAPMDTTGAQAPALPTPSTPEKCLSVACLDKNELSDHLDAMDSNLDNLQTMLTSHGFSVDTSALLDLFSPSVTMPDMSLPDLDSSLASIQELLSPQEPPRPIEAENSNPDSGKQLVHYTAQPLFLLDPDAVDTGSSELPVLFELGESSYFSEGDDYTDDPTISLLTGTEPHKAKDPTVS
# [2] = P. falciparum Dd2 growth inhibitors, dose response, SYBR Green, cherry-picked samples (AID 1159567); type: functional, cell-based
# Protein skinhead-1 = target: T2, Protein skinhead-1 (Caenorhabditis elegans, UniProt P34707); type: functional
# T2 sequence (P34707 whole entry): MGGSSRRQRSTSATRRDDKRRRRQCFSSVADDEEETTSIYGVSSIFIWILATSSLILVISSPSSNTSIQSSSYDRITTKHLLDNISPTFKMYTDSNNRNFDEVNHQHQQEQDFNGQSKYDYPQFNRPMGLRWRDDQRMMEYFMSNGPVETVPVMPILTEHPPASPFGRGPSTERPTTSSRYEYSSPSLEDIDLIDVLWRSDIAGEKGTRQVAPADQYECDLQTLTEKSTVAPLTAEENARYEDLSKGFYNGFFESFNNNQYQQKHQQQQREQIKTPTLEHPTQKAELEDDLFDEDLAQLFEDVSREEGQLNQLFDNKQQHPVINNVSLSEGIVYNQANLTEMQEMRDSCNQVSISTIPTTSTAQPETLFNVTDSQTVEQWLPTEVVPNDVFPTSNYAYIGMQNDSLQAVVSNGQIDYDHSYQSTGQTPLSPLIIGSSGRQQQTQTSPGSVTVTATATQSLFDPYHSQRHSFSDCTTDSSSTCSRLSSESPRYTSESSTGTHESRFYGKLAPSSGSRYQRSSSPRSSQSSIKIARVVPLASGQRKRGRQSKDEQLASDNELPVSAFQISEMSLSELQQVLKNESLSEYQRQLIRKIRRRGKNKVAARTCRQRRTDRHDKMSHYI
# Fatty acid synthase [3] = target: T3, Fatty acid synthase (Homo sapiens, UniProt P49327); experiment: inhibition of human FAS-TE enzyme activity – biochemical, endpoint fluorescence intensity, uHTS hits, dose response (AID 624327); type: functional;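 further: fluorescence from hydrolysis of an O-methyl fluorescein acyl ester substrate by the enzyme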
# Fatty acid synthase [4] = target: T3, Fatty acid synthase; experiment: inhibition of human FAS-TE enzyme activity – biochemical, kinetic fluorescence intensity, dose response (AID 624326); type: functional;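 further: rate of fluorescence rise from hydrolysis of a fluorogenic O-methyl fluorescein ester substrate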
# Cytochrome P450 1A2 = target: T4, Cytochrome P450 1A2 (Homo sapiens, UniProt P05177);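 further: PubChem cytochrome P450 panel assay, CYP1A2 panel member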
# T4 sequence (P05177 whole entry): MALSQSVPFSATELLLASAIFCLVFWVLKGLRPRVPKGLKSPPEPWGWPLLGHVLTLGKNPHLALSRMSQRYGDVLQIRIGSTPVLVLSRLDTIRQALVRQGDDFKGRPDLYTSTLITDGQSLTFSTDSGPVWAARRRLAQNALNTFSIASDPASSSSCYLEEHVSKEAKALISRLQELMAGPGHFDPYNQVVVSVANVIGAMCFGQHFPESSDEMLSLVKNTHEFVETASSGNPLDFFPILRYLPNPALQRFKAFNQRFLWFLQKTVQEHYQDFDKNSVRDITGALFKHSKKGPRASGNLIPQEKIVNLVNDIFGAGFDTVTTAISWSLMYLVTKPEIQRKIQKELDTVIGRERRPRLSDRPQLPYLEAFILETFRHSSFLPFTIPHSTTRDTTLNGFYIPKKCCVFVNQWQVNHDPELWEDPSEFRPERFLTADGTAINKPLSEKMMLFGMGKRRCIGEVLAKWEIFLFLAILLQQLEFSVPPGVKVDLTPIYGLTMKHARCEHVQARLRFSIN
# [5] = Luminescence Cell-Based Dose Response HTS to Identify Activators of Luciferase Translation or Activity in H4 […] Cells. [Related pubchem assays: 1829 (Project Summary), 1814 (Primary HTS)]; type: functional
# [6] = Luminescence Cell-Based Dose Confirmation HTS to Identify Activators of 5'UTR Stem-Loop Driven Alpha-Synuclein mRNA Translation in H4 Neuroglioblastoma Cells. [Related pubchem assays: 1829 (Project Summary), 1814 (Primary HTS)]; type: functional
# H4 = experiment: Luminescence Cell-Based Dose Response HTS to Identify Activators of 5'UTR Stem-Loop Driven Prion Protein mRNA Translation in H4 Neuroglioblastoma Cells. [Related pubchem assays: 1829 (Project Summary), 1814 (Primary HTS)]; type: functional; settings: Homo sapiens
# [7] = non-specific 3'UTR reporter inhibition in Clone20-Shn3RL – cell-based, Renilla luciferase, cherry-picked, counter-screen for Shn3 inhibitor project, dose response (AID 624133); type: functional
# [8] = reduction of Shn3 3'UTR-driven luciferase in osteoblasts – cell-based, Clone20 osteoblasts, firefly luciferase, cherry-picked, dose response (AID 624132); type: functional;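 further: firefly luciferase luminescence from reporter carrying the Shn3 3'UTR in osteoblasts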
# [9] = loss of viability in HepG2 cells – cell-based, CellTiter-Glo, cherry-picked, cytotoxicity control for Shn3 inhibitor project, dose response (AID 624134); type: functional
# T3 sequence (P49327 whole entry): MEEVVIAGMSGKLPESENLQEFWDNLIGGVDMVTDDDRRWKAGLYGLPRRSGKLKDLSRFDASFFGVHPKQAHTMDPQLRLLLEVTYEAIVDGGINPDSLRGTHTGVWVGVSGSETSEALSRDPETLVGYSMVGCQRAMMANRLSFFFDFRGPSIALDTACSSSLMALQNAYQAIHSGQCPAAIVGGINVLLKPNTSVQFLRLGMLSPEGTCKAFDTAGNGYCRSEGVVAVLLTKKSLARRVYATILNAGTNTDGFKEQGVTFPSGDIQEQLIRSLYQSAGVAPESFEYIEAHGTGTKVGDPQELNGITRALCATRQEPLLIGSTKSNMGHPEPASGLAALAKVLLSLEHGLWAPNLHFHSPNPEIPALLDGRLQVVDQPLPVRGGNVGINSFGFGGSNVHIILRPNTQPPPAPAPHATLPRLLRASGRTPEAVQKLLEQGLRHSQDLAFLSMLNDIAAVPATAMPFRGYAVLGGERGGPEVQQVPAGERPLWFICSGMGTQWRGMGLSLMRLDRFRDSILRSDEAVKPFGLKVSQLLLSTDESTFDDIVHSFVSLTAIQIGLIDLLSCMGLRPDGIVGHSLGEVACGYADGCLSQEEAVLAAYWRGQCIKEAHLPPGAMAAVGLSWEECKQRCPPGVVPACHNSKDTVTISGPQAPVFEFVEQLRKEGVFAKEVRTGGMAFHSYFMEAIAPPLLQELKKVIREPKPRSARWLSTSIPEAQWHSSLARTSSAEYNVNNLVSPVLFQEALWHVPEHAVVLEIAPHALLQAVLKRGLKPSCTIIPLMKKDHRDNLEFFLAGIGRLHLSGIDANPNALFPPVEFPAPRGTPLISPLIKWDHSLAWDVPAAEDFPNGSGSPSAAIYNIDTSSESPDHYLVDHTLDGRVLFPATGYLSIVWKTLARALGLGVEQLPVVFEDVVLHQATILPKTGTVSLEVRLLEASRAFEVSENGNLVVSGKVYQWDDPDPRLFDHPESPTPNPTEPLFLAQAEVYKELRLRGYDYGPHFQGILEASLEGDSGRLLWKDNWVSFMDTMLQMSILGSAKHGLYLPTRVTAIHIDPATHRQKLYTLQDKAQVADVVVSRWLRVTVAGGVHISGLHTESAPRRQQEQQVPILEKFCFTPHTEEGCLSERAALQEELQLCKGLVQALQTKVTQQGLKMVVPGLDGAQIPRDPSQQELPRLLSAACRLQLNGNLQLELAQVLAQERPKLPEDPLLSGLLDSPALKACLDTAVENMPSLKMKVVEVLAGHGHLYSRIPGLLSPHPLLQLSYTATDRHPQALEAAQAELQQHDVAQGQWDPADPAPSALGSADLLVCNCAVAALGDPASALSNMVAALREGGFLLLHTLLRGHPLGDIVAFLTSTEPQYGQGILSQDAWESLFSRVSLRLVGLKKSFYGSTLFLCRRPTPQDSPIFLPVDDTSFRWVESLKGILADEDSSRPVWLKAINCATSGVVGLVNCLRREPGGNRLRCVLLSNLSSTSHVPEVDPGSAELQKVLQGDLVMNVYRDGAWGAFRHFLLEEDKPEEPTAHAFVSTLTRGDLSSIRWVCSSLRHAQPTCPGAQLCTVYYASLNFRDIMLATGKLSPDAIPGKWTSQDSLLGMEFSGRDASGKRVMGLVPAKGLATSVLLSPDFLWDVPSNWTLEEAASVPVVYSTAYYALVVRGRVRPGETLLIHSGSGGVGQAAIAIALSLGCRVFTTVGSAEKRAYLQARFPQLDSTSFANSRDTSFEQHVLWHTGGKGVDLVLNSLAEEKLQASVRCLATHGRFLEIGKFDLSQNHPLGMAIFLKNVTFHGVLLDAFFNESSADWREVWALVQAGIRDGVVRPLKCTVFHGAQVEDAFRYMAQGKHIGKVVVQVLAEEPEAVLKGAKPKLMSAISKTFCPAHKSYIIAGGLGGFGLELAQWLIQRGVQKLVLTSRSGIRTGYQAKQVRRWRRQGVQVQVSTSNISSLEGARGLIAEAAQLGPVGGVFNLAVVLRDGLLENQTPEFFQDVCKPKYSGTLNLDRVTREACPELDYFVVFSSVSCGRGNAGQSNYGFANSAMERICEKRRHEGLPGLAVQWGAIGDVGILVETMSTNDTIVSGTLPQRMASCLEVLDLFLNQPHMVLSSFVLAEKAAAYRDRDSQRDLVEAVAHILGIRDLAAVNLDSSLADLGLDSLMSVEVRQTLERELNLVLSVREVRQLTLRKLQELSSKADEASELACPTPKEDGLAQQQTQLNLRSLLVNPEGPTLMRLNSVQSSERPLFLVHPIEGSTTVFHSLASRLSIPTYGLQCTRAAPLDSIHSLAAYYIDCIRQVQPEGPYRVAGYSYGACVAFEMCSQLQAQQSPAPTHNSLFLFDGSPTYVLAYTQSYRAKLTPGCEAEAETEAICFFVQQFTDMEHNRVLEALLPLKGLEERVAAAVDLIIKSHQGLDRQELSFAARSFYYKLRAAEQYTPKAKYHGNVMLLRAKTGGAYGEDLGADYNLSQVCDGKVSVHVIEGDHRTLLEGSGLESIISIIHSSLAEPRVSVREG
smiles,measurement,setting,value
COc1ccc(N/C=C(\C=C\C#N)S(=O)(=O)c2ccccc2)cc1,EC50,[1],> 260 µM (inactive)
N#C[C@@H]1[C@H](c2ccccc2C2=CCCCC2)[C@@H](CO)N1S(=O)(=O)c1ccccc1,AC50,[2],15 µM (active)
FCCCOc1ccc(/C=N/OCc2ccc(Cl)cc2)cc1,IC50,Protein skinhead-1,> 100 µM (inactive)
COC(=O)CCC(=O)COc1ccc(OC)cc1C#N,EC50,[1],105 µM (active)
CCCC(=O)N1CC2(C1)CN(Cc1ccccc1F)[C@H](CO)c1c2c2ccc(OC)cc2n1C,AC50,[2],6.14 µM (active)
COC(=O)c1cccc(CC2(C)C(=O)Nc3ccc(OC(F)(F)F)cc32)c1 (stereo not given),IC50,Protein skinhead-1,88.5 µM (inactive)
CCOC(=O)C1CCN(C(=O)c2cc3cc4ccc(C)cc4nc3o2)CC1,IC50,Fatty acid synthase [3],11.3 µM (active)
same,IC50,Fatty acid synthase [4],12.2 µM (active)
CCn1c(S)nnc1CC(C)C,EC50,[1],> 260 µM (inactive)
same,AC50,Cytochrome P450 1A2,22.4 µM (inconclusive)
N#CC1(NC(=O)COC(=O)c2cc([N+](=O)[O-])ccc2N2CCCC2)CCCCC1,IC50,Fatty acid synthase [3],7.64 µM (active)
same,IC50,Fatty acid synthase [4],5.51 µM (active)
CCC(=O)Nc1ccc2c(c1)C(=O)N(C)C[C@H](OC)[C@H](C)CN(Cc1cccc(F)c1)[C@@H](C)CO2,AC50,[2],11.3 µM (active)
O=C(NCCCc1ccccc1)c1cc([N+](=O)[O-])ccc1Cl,IC50,Fatty acid synthase [3],1.1 µM (active)
same,IC50,Fatty acid synthase [4],3.28 µM (active)
CCC(C(=O)Nc1cccc(S(=O)(=O)N(C)c2ccccc2)c1)c1ccccc1 (stereo not given),IC50,Protein skinhead-1,> 100 µM (inactive)
Clc1ccc(OCc2cnc(Cl)s2)cc1,IC50,Protein skinhead-1,13.2 µM (active)
O=C(c1ccc(Cl)c(S(=O)(=O)NCc2ccco2)c1)N1CCN(c2ccccc2F)CC1,EC50,[1],> 260 µM (inactive)
CCOC(=O)c1c(C)n(-c2ccc(C)cc2)c2c(CC(C)=O)c(Br)c(OC)c(O)c12,EC50,[1],> 260 µM (inactive)
CC(=O)Nc1ccc(N/C=C/C(=O)C(C)(C)C)cc1,EC50,[1],> 260 µM (inactive)
O=C(COc1ccc(Br)cc1Cl)NC1CCCCC1,EC50,[5],0.128 µM (inconclusive)
same,EC50,[6],0.174 µM (active)
C/C=C/c1ccc([C@@H]2[C@H](CO)N(CC3CCCC3)C23CN(C(=O)CC2CC2)C3)cc1,AC50,[2],5.78 µM (active)
O=[N+]([O-])c1ccc2c(c1)nc1n2CCN(C2CCCCC2)C1,EC50,[5],80.8 µM (active)
same,EC50,[6],17.6 µM (active)
Cc1cccc(/C=N\NC(=O)c2csnn2)c1,EC50,[1],> 260 µM (inconclusive)
CC1(C)CC(=O)c2sc(N3CCCCC3)nc2C1,EC50,H4,74 µM (active)
same,EC50,[5],68.7 µM (active)
same,EC50,[6],8.85 µM (active)
COc1ccccc1/C=C/C(=O)c1cc(Br)ccc1OC(=O)c1ccco1,EC50,[1],20.5 µM (active)
CN(Cc1ccccc1)c1nc(N)c([N+](=O)[O-])c(NCc2ccccc2)n1,EC50,[1],> 260 µM (inactive)
Cn1c(NC(=O)/C=C/c2ccccc2)cc(=O)n(C)c1=O,EC50,H4,68.7 µM (inconclusive)
same,EC50,[5],26.1 µM (active)
same,EC50,[6],14.9 µM (active)
COc1ccc(Cl)cc1N(CC(=O)Nc1ccccc1SC)S(C)(=O)=O,EC50,[1],> 260 µM (inactive)
Cc1cccn2c(O)c(C(=O)NC3CCCCC3)c(=O)nc12,EC50,H4,> 120 µM (not active)
same,EC50,[5],> 120 µM (not active)
same,EC50,[6],> 120 µM (not active)
CC(=O)c1ccc(N2CCN(S(=O)(=O)c3ccc(-c4cnc(C5CC5)o4)cc3)CC2)cc1,AC50,[7],20.8 µM (active)
same,AC50,[8],5.95 µM (active)
same,AC50,[9],38.7 µM (active)
same,IC50,Fatty acid synthase [3],24.4 µM (inactive)
same,IC50,Fatty acid synthase [4],11.6 µM (active)
Cc1ccc(Nc2nc(/N=C/N(C)C)n[nH]2)cc1C,EC50,H4,28.2 µM (active)
same,EC50,[5],> 120 µM (not active)
same,EC50,[6],> 120 µM (not active)
CC(C)CCNC(=O)C1CC(c2cccc([N+](=O)[O-])c2)=NO1 (stereo not given),IC50,Fatty acid synthase [3],8.3 µM (active)
same,IC50,Fatty acid synthase [4],11 µM (active)
O=C(COC(=O)c1cc([N+](=O)[O-])ccc1N1CCOCC1)NC1CCCCC1,IC50,Fatty acid synthase [3],0.321 µM (active)
same,IC50,Fatty acid synthase [4],0.266 µM (active)
COc1cccc(Sc2ccccc2/C=N/NC(N)=O)c1,EC50,[1],> 260 µM (inactive)
C=CC[n+]1c(-c2ccc(OC)cc2)csc1NNC(=O)Nc1ccccc1,EC50,[1],> 260 µM (inactive)
CCCCSc1nc(O)c(C(=O)OCC)cc1C#N,IC50,Protein skinhead-1,> 100 µM (inactive)
O=C(c1cccc(F)c1)N1CC[C@H]2[C@H](CO)Nc3ccc(C#Cc4cccc(F)c4)cc3[C@H]21,AC50,[2],4.2 µM (active)
Cc1cc(C)n(CC(O)COc2ccc3ccccc3c2)n1 (stereo not given),EC50,H4,31.3 µM (active)
same,EC50,[5],16.5 µM (active)
same,EC50,[6],16.4 µM (active)
CC1CCCCN1C(=O)COC(=O)c1cc([N+](=O)[O-])ccc1N1CCOCC1 (stereo not given),IC50,Fatty acid synthase [3],9.09 µM (active)
same,IC50,Fatty acid synthase [4],10.9 µM (active)
COc1ccc(C(c2nnnn2-c2c(C)cccc2C)N2CCC(n3c(O)nc4ccccc43)CC2)cc1 (stereo not given),IC50,Fatty acid synthase [3],16.5 µM (active)
same,IC50,Fatty acid synthase [4],16 µM (active)
Cc1ccc(Cn2nc(C)cc2C(=O)Nc2ccccc2Cl)cc1,EC50,H4,33.9 µM (active)
same,EC50,[5],21.3 µM (active)
same,EC50,[6],1.49 µM (active)
CC1CCCN(S(=O)(=O)c2ccc(NC(=O)Cc3ccc(S(=O)(=O)N4CCOCC4)s3)cc2)C1 (stereo not given),IC50,Fatty acid synthase [3],7.85 µM (active)
same,IC50,Fatty acid synthase [4],9.35 µM (active)
COc1ccc2o/c(=N/c3cc(F)ccc3F)c(C(N)=O)cc2c1,EC50,H4,> 120 µM (not active)
same,EC50,[5],> 120 µM (not active)
same,EC50,[6],> 120 µM (not active)
CC(C(=O)N1CCN(C)CC1)N1C(=O)c2ccccc2C1=O (stereo not given),IC50,Protein skinhead-1,> 100 µM (inactive)
